PMC7843452, “Novel Hybrids of Podophyllotoxin and Coumarin Inhibit the Growth and Migration of Human Oral Squamous Carcinoma Cells” (Frontiers in Chemistry, 2021)
Like-named read-outs stand apart in the source and are kept apart here.

Tests used:
[1] = test system: human oral squamous carcinoma HSC-2 cells; assay: CCK-8 antiproliferative assay, HSC-2; assay type: cell-based; conditions: for IC50: read-out: IC50 (μM) HSC-2
Description: (§1) The in vitro antiproliferative activities of target compounds were investigated against human oral squamous carcinoma HSC-2, SCC-9, and A253 cells and human renal tubular epithelial HK-2 cells by Cell Counting Kit-8 (CCK-8) assay. The HSC-2, SCC-9, and A253 cell lines were purchased from Cobioer Biosciences (Nanjing, China), and HK-2 cell line was from KeyGen Biotech (Nanjing, China). The cells were placed into 96-well plates. After 24 h, cells were treated with 0.1% DMSO or different doses of test compounds for 72 h at 37°C in a CO2 incubator. Subsequently, 100 μl of CCK-8 test solution was added and incubated for 3 h at 37°C. The absorbance value of each well was measured at 450 nm.

[2] = test system: human oral squamous carcinoma SCC-9 cells; assay: CCK-8 antiproliferative assay, SCC-9; assay type: cell-based; conditions: for IC50: read-out: IC50 (μM) SCC-9
Description: as §1

[3] = test system: human oral squamous carcinoma A253 cells; assay: CCK-8 antiproliferative assay, A253; assay type: cell-based; conditions: for IC50: read-out: IC50 (μM) A253
Description: as §1

[4] = test system: human renal tubular epithelial HK-2 cells; assay: CCK-8 assay on normal cells, HK-2; assay type: cell-based; conditions: read-out: IC50 (μM) HK-2
Description: as §1

[5] = test system: HSC-2 cells; assay: Cell cycle analysis by flow cytometry (PI); assay type: cell-based, human; conditions: 48 h
Description: HSC-2 cells were incubated in six-well plates and then treated with 0.1% DMSO or different concentrations of test compounds for 48 h. Subsequently, cells were fixed with 70% ethanol at 4°C overnight. After that, cells were washed with phosphate-buffered saline (PBS) and stained with 100 μl of RNase A at 37°C for 30 min and then 400 μl of propidium iodide (PI) at 4°C for 30 min. The cell cycle was measured by flow cytometry.

[6] = test system: HSC-2 cells; assay: Cell apoptosis analysis by flow cytometry (Annexin V/7-AAD); assay type: cell-based, human; conditions: HSC-2, 0.1, 0.25 and 0.5 μM, 48 h, dose-dependent
Description: HSC-2 cells were seeded into six-well plates, grown overnight at 37°C in a 5% CO2 incubator, and then treated with 0.1% DMSO or different concentrations of test compounds for 48 h. Cells were washed twice with ice-cold PBS and then suspended with 500 μl of binding buffer. Subsequently, 5 μl of Annexin V-APC and 5 μl of 7-AAD were added, and the cells were incubated at room temperature for 15 min in the dark. The samples were analyzed by flow cytometry.

[7] = test system: HSC-2 cells; assay: Mitochondrial membrane potential assay (JC-1); assay type: cell-based, human; conditions: HSC-2, 0.1, 0.25 and 0.5 μM, 48 h, JC-1, dose-dependent
Description: HSC-2 cells were seeded on six-well plates and grown overnight at 37°C in a 5% CO2 incubator. Then, cells were incubated with 0.1% DMSO or different concentrations of compounds at 37°C for 48 h. Subsequently, cells were trypsinized, washed with PBS, and resuspended in incubation buffer containing JC-1 at 37°C for 20 min in a 5% CO2 incubator. The dyeing cells were rinsed, suspended in incubation PBS, and then analyzed d by flow cytometry.

[8] = test system: HSC-2 cells; assay: AO/EB double staining assay; assay type: cell-based, human; conditions: HSC-2, 0.1, 0.25 and 0.5 μM, 48 h
Description: HSC-2 cells were seeded on six-well plates and grown overnight at 37°C in a 5% CO2 incubator. Then, cells were incubated with 0.1% DMSO or different concentrations of compounds at 37°C for 48 h. Subsequently, cells were trypsinized, collected, washed with PBS, and stained with 100 μl of AO/EB dye at room temperature for 15 min in the dark. The dyeing cells were rinsed, suspended in incubation PBS, and then observed under a fluorescence microscope.

[9] = test system: microtubule network in HSC-2 cells; assay: Immunofluorescence assay of microtubule network; assay type: cell-based, human; conditions: HSC-2, 0.1, 0.25 and 0.5 μM, 48 h, dose-dependent
Description: HSC-2 cells were seeded on 24-well plates, grown overnight at 37°C in a 5% CO2 incubator, and then incubated with 0.1% DMSO or different concentrations of compounds at 37°C for 48 h. Cells were washed with PBS, fixed with 4% paraformaldehyde, and then further permeabilized with 0.5% Triton X-100 for 10 min. Subsequently, cells were blocked for 20 min by 50–100 μl of goat serum albumin at room temperature and then treated with α-tubulin primary antibody at 4°C for 2 h. Then, cells were treated with the Alexa Fluor 488-labeled goat anti-rabbit fluorescence secondary antibody at 37°C for 1 h in the dark, and the cell nuclei were labeled by DAPI at room temperature for 5 min. Finally, cells were visualized under a confocal microscope.

[10] = test system: HSC-2 cells; assay: Wound healing migration assay; assay type: cell-based, human; conditions: HSC-2, 0.1, 0.25 and 0.5 μM, 48 h, dose-dependent
Description: HSC-2 cells were seeded on six-well plates and grown to 80% at 37°C in a 5% CO2 incubator. Then, cells were scratched using the tip of the pipette, then washed with PBS to remove the non-adherent cells, and incubated with 0.1% DMSO or different concentrations of compounds at 37°C for 48 h. The images of cell migration were photographed with an inverted fluorescent microscope at 0 and 48 h.

[11] = test system: CDK2; assay: Western blot, CDK2; assay type: cell-based, human; conditions: HSC-2, 0.1, 0.25 and 0.5 μM, 48 h
Description: (§2) After being cultured, HSC-2 cells were treated with 0.1% DMSO or different concentrations of compounds at 37°C for 48 h. Then, cells were collected, washed twice with PBS, and lysed with cold lysis buffer, followed by centrifugation. Then, the total proteins were collected, and protein concentration was quantified using Bradford assay. Equal amounts of proteins were electrophoresed by 10% sodium dodecyl sulfate–polyacrylamide gel electrophoresis (SDS-PAGE) and transferred onto nitrocellulose (NC) membrane. Membranes were blocked with 5% non-fat milk for 2 h, then washed, and incubated with primary antibodies overnight at 4°C. After being washed, the membranes were treated with secondary antibodies at room temperature for 2 h and then visualized using an ECL Western blotting kit.

[12] = test system: cyclin A2; assay: Western blot, cyclin A2; assay type: cell-based, human; conditions: HSC-2, 0.1, 0.25 and 0.5 μM, 48 h
Description: as §2

[13] = test system: cleaved caspase3; assay: Western blot, cleaved caspase3; assay type: cell-based, human; conditions: HSC-2, 0.1, 0.25 and 0.5 μM, 48 h, concentration-dependent
Description: as §2

[14] = test system: cleaved PARP; assay: Western blot, cleaved PARP; assay type: cell-based, human; conditions: HSC-2, 0.1, 0.25 and 0.5 μM, 48 h, concentration-dependent
Description: as §2

[15] = test system: E-cadherin; assay: Western blot, E-cadherin; assay type: cell-based, human; conditions: HSC-2, 0.1, 0.25 and 0.5 μM, 48 h
Description: as §2

[16] = test system: MMP-2; assay: Western blot, MMP-2; assay type: cell-based, human; conditions: HSC-2, 0.1, 0.25 and 0.5 μM, 48 h
Description: as §2

[17] = test system: Beclin1; assay: Western blot, Beclin1; assay type: cell-based, human; conditions: HSC-2, 0.1, 0.25 and 0.5 μM, 48 h
Description: as §2

[18] = test system: LC3; assay: Western blot, LC3; assay type: cell-based, human; conditions: HSC-2, 0.1, 0.25 and 0.5 μM, 48 h
Description: as §2

[19] = test system: p-AMPK; assay: Western blot, p-AMPK; assay type: cell-based, human; conditions: HSC-2, 0.1, 0.25 and 0.5 μM, 48 h, dose-dependent
Description: as §2

[20] = test system: p-AKT; assay: Western blot, p-AKT; assay type: cell-based, human; conditions: HSC-2, 0.1, 0.25 and 0.5 μM, 48 h
Description: as §2

[21] = test system: p-mTOR; assay: Western blot, p-mTOR; assay type: cell-based, human; conditions: HSC-2, 0.1, 0.25 and 0.5 μM, 48 h
Description: as §2

[22] = test system: human breast MCF-7 cells; design: method as in Sun et al., 2017; conditions: in vitro; ref Sun et al., 2017; read-out: IC50 against MCF-7 cells; cited from earlier work
[23] = test system: human non-small-cell lung carcinoma A549 cells; design: method as in Yang et al., 2019; conditions: ref Yang et al., 2019; read-out: IC50 against A549 cells; cited from earlier work
[24] = test system: MGC-803 cells; design: method as in Huang et al., 2017; conditions: in vitro; ref Huang et al., 2017; cited from earlier work
[25] = test system: NCI-H460 cells; design: method as in Huang et al., 2017; conditions: in vitro; ref Huang et al., 2017; cited from earlier work
[26] = normal cells, CCK-8, 72 h, mean ± SD
[27] = Homo sapiens, HSC-2, CCK-8, 72 h, mean ± SD
[28] = Homo sapiens, SCC-9, CCK-8, 72 h, mean ± SD
[29] = Homo sapiens, A253, CCK-8, 72 h, mean ± SD

O=c1[nH]cc(F)c(=O)[nH]1 [5-FU]
IC50 ([1]; CCK-8, 72 h, mean ± SD): 7.12 ± 0.87 µM
IC50 ([2]; CCK-8, 72 h, mean ± SD): 5.35 ± 0.784 µM
IC50 ([3]; CCK-8, 72 h, mean ± SD): 5.52 ± 0.199 µM
IC50 [4, 26]: 8.77 ± 1.04 µM

COc1cc([C@@H]2c3cc4c(cc3[C@H](OC(=O)COc3ccc5c(C)cc(=O)oc5c3)[C@H]3COC(=O)[C@H]23)OCO4)cc(OC)c1OC [12a]
IC50 ([1]; Homo sapiens, HSC-2, 72 h): 0.281 ± 0.024 µM
IC50 ([2]; Homo sapiens, SCC-9, 72 h): 0.279 ± 0.041 µM
IC50 ([3]; Homo sapiens, A253, 72 h): 0.349 ± 0.063 µM
IC50 ([4]; Homo sapiens, HK-2, 72 h): 0.814 ± 0.173 µM

COc1cc([C@@H]2c3cc4c(cc3[C@H](OC(=O)COc3ccc5ccc(=O)oc5c3)[C@H]3COC(=O)[C@H]23)OCO4)cc(OC)c1OC [12b]
IC50 ([1]; Homo sapiens, HSC-2, 72 h): 0.226 ± 0.021 µM
IC50 ([2]; Homo sapiens, SCC-9, 72 h): 0.231 ± 0.05 µM
IC50 ([3]; Homo sapiens, A253, 72 h): 0.25 ± 0.019 µM
IC50 ([4]; Homo sapiens, HK-2, 72 h): 0.626 ± 0.043 µM
Effect on cell cycle ([5]; HSC-2, 0.1 μM): significant S accumulation
Effect on cell cycle ([5]; HSC-2, 0.25 and 0.5 μM): cell cycle arrest at both S and G2 phases
Induction of apoptosis [6]: obviously induced apoptosis
Mitochondrial membrane potential (MMP) [7]: significantly decreased
Morphological change, AO/EB staining [8]: chromatin condensation and shrinkage
Effect on microtubule network organization [9]: disruption of microtubule network organizations
Cell migration [10]: inhibited HSC-2 cell migration
Relative level of CDK2 [11]: suppressed in a concentration-dependent manner
Relative level of cyclin A2 [12]: suppressed in a concentration-dependent manner
Relative level of cleaved caspase3 [13]: upregulated
Relative level of cleaved PARP [14]: upregulated
Expression of E-cadherin [15]: obviously enhanced
Expression of MMP-2 [16]: reduced
Aggregation of Beclin1 [17]: increasing
Aggregation of LC3 [18]: increasing
Level of cleavage of LC3 (LC3-II) [18]: upregulated
p-AMPK expression [19]: upregulated
Phosphorylation of AKT [20]: downregulated
mTOR phosphorylation [21]: inhibition

N.N.[Cl][Pt][Cl] [Cisplatin, cisplatin]
IC50 ([1]; CCK-8, 72 h, mean ± SD): 2.03 ± 0.308 µM
IC50 ([2]; CCK-8, 72 h, mean ± SD): 2.35 ± 0.384 µM
IC50 ([3]; CCK-8, 72 h, mean ± SD): 1.62 ± 0.157 µM
IC50 [4, 26]: 5.36 ± 0.33 µM

COc1cc([C@@H]2c3cc4c(cc3[C@@H](O[C@@H]3O[C@@H]5CO[C@@H](C)O[C@H]5[C@H](O)[C@H]3O)[C@H]3COC(=O)[C@H]23)OCO4)cc(OC)c1O [Etoposide, etoposide]
IC50 [1, 27]: 1.25 ± 0.467 µM
IC50 [2, 28]: 1.15 ± 0.308 µM
IC50 [3, 29]: 0.95 ± 0.387 µM
IC50 ([4]; Homo sapiens, HK-2, normal cells, CCK-8, 72 h, mean ± SD): 3.04 ± 1.37 µM

COc1cc([C@@H]2c3cc4c(cc3[C@H](O)[C@H]3COC(=O)[C@H]23)OCO4)cc(OC)c1OC [compound 1, Podophyllotoxin]
IC50 ([1]; Homo sapiens, HSC-2, 72 h): 0.011 ± 0.003 µM
IC50 ([2]; Homo sapiens, SCC-9, 72 h): 0.009 ± 0.001 µM
IC50 ([3]; Homo sapiens, A253, 72 h): 0.01 ± 0.001 µM
IC50 ([4]; Homo sapiens, HK-2, 72 h): 0.04 ± 0.006 µM

COc1cc(C2c3cc4c(cc3C(OC(=O)CN3CCN(c5ccc(Cl)c(Cl)c5)CC3)C3COC(=O)C23)OCO4)cc(OC)c1OC (centres unmarked) [compound 5]
IC50 [22]: 2.78 ± 0.15 µM

COc1ccc(-c2coc3cc(OCC(=O)OC4c5cc6c(cc5C(c5cc(OC)c(OC)c(OC)c5)C5C(=O)OCC45)OCO6)ccc3c2=O)cc1 (centres unmarked) [compound 6]
IC50 [23]: 0.753 ± 0.173 µM

Cc1cc(=O)oc2cc(O)ccc12 [compound 7, 4-methylumbelliferone]
IC50 (μM) HSC-2 ([1]; CCK-8, 72 h, mean ± SD): no antiproliferative effect
IC50 [1, 27]: > 100 µM
IC50 (μM) SCC-9 ([2]; CCK-8, 72 h, mean ± SD): no antiproliferative effect
IC50 [2, 28]: > 100 µM
IC50 (μM) A253 ([3]; CCK-8, 72 h, mean ± SD): no antiproliferative effect
IC50 [3, 29]: > 100 µM

O=c1ccc2ccc(O)cc2o1 [compound 8, 7-hydroxycoumarin]
IC50 (μM) HSC-2 ([1]; CCK-8, 72 h, mean ± SD): no antiproliferative effect
IC50 [1, 27]: > 100 µM
IC50 (μM) SCC-9 ([2]; CCK-8, 72 h, mean ± SD): no antiproliferative effect
IC50 [2, 28]: > 100 µM
IC50 (μM) A253 ([3]; CCK-8, 72 h, mean ± SD): no antiproliferative effect
IC50 [3, 29]: > 100 µM

Cc1cc(=O)oc2c(CN3CCN(C(=O)Nc4ccc(Br)c(F)c4)CC3)c(O)ccc12 [compound 10]
IC50 [24]: 2.13 ± 0.75 µM
IC50 [25]: 1.86 ± 0.73 µM
